Patent publication US20230043863A1, “HETEROAROMATIC DERIVATIVES FOR USE AS REGULATOR, PREPARATION METHOD THEREFOR AND USE THEREOF” (JIANGSU HANSOH PHARMACEUTICAL GROUP CO., LTD., priority 2018, published 2023)

What was measured:
[1] = biological target: TYK2 (Homo sapiens, UniProt P29597); experiment: JAK kinase activity inhibition, TR-FRET (TYK2); assay type: biochemical; details: TR-FRET kinase assay
Procedure: (§1) Experimental objective: The objective of this test is to test the inhibitory effect of the compound on JAK kinase activity.
(§2) Experimental method: the fluorescence resonance energy transfer (TR-FRET) method was used to test the inhibitory effect of the compound on JAK kinase activity, and the half inhibitory concentration IC50 of the compound on JAK kinase activity was obtained.
(§3) Kinase reaction was carried out in a white 384-well plate (PerkinElmer). 1-5 μL of different concentrations of the compound diluted with DMSO and ddH2O was added into each well, and 1-5 μL of the corresponding solvent was added to the positive control wells, followed by addition of 0.1-20 nM JAK kinase solution diluted with 1-5 μL of kinase buffer (HEPES 50-250 mM, MgCl2 5-20 mM, etc.) was added to each well. 1-5 μL of kinase buffer was added to the negative control well. 1-5 μL of substrate mixture containing peptide substrate and ATP was added. The plate was incubated at room temperature for 0.5-5 hours. […], EDTA and detection solution containing labeled antibody was added, and then the plate was incubated at room temperature for another 1-24 hours. The fluorescence signal value at about 620 nm and 665 nm of each well was measured by BioTek Synergy H1 plate reader, and the inhibition rate was calculated by the fluorescence signal value. According to the inhibition rate of different concentrations, the IC50 of the compound was obtained by curve fitting.
(§4) The percentage inhibition data of the wells treated with the compound was calculated with the positive control wells (DMSO control wells) and negative control wells (no kinase added) on the plate {% inhibition rate=100-[(test compound value-negative control value)]/(Positive control value-negative control value)×100}. IC50 value was calculated by using GraphPad prism to fit the data of different concentrations and corresponding percentage inhibition rates to a 4-parameter non-linear logic formula.

[2] = biological target: JAK1 (Homo sapiens, UniProt P23458); experiment: JAK kinase activity inhibition, TR-FRET (JAK1); assay type: biochemical; details: TR-FRET kinase assay
JAK1, sequence (P23458 whole entry): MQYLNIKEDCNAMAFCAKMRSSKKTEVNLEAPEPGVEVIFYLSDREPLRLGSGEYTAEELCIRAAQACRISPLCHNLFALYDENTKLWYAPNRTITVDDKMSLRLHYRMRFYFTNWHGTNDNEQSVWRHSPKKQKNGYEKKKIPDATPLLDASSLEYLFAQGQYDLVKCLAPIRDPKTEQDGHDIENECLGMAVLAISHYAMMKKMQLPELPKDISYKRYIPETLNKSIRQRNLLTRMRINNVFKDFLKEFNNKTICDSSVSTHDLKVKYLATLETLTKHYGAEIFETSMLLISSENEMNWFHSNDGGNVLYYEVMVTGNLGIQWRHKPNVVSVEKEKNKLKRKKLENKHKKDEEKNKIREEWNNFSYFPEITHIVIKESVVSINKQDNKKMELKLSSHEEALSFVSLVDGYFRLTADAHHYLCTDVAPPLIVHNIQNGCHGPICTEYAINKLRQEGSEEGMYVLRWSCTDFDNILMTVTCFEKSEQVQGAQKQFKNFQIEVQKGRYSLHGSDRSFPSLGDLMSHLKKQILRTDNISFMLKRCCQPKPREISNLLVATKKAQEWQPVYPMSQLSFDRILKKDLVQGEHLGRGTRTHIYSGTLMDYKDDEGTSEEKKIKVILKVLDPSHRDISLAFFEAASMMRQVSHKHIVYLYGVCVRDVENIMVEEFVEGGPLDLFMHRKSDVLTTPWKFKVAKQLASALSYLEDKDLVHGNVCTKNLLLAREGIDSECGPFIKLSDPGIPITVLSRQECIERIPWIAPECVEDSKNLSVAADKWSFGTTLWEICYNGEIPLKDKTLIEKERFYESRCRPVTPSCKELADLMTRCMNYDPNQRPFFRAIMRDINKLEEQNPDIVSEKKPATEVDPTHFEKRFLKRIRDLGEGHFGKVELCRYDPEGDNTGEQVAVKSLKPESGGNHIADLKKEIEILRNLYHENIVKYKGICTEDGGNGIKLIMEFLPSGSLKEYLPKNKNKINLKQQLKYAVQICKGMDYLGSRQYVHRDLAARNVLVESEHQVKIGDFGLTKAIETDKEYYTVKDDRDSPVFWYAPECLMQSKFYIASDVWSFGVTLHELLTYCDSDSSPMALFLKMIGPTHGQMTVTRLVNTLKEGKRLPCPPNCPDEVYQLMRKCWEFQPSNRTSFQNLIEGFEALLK
Procedure: as §1, §2, §3, §4

TYK2, sequence (P29597 whole entry): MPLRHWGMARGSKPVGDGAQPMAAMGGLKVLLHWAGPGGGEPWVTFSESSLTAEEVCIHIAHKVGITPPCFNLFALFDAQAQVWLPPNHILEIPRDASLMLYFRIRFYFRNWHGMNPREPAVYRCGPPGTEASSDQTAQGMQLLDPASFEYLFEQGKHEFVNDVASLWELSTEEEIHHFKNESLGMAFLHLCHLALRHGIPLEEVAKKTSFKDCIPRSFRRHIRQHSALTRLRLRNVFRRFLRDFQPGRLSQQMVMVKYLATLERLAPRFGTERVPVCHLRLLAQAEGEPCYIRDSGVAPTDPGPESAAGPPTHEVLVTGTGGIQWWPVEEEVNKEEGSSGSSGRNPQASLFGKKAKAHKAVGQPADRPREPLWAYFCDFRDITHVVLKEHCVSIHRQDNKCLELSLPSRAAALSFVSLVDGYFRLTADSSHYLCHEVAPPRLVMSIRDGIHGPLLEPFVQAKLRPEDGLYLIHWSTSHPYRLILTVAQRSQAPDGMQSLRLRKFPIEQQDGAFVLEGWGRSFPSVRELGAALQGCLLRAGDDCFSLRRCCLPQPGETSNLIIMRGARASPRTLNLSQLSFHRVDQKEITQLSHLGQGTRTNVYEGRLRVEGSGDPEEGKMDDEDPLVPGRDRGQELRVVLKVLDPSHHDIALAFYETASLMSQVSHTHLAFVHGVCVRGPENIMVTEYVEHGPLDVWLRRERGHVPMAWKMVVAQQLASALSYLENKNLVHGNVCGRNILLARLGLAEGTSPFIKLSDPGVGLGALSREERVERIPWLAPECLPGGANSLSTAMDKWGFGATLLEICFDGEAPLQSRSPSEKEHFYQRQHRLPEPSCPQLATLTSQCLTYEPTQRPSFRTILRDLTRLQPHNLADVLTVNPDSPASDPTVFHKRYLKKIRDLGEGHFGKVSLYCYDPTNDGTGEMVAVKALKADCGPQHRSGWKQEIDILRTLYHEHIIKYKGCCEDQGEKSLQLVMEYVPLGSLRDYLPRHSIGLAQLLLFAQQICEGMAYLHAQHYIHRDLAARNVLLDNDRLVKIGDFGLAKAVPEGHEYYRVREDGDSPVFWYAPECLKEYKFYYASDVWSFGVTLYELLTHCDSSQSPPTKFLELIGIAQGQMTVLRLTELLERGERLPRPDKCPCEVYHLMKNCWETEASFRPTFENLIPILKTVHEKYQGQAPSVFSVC

**Q.** `N#CCCN1[C@@H]2CC[C@H]1C[C@H](Nc1nc(Nc3cc[nH]n3)cc3ncccc13)C2` [Embodiment 6, 3-((3-exo)-3-((7-((1H-pyrazol-3-yl)amino)-1,6-diazanaphthalen-5-yl)amino)-8-azabicyclo[3.2.1]oct-8-yl)propionitrile] was tested. Which IC50 [1] did it give?
**A.** Its IC50 is 10.7 nM.

**Q.** And the IC50 [2]?
**A.** The IC50 was 4.03 nM.

**Q.** How did the IC50 [1] turn out when `N#CCCN1[C@@H]2CC[C@H]1C[C@H](Nc1nc(Nc3cc(F)[nH]n3)cc3ncccc13)C2` [Embodiment 9, 3-((3-exo)-3-((7-((5-fluoro-1H-pyrazol-3-yl)amino)-1,6-diazanaphthalen-5-yl)amino)-8-azabicyclo[3.2.1]oct-8-yl)propionitrile] was run?
**A.** Its IC50 is > 100 nM.

**Q.** And the IC50 [2]?
**A.** Its IC50 is 30.6 nM.

**Q.** Which results are given for `N#CCCN1[C@@H]2CC[C@H]1C[C@H](Nc1nc(Nc3cc(C4CC4)[nH]n3)cc3ncccc13)C2` [Embodiment 12, 3-((3-exo)-3-((7-((5-cyclopropyl-1H-pyrazol-3-yl)amino)-1,6-diazanaphthalen-5-yl)amino)-8-azabicyclo[3.2.1]oct-8-yl)propionitrile]?
**A.** IC50 [1]: 10.1 nM; IC50 [2]: 2.71 nM

**Q.** For `N#CCCN1[C@@H]2CC[C@H]1C[C@H](Nc1nc(Nc3cc(CO)[nH]n3)cc3ncccc13)C2` [Embodiment 19, 3-((3-exo)-3-((7-((5-(hydroxymethyl)-1H-pyrazol-3-yl)amino)-1,6-diazanaphthalen-5-yl)amino)-8-azabicyclo[3.2.1]oct-8-yl)propionitrile], which IC50 [1] is on record?
**A.** The IC50 was 40.7 nM.

**Q.** What about the IC50 [2] of the same compound?
**A.** The IC50 was 2.23 nM.

**Q.** For `Cn1cnc(Nc2cc3ncccc3c(N[C@@H]3C[C@H]4CC[C@@H](C3)N4CCC#N)n2)c1` [Embodiment 25, 3-((3-exo)-3-((7-((1-methyl-1H-imidazol-4-yl)amino)-1,6-diazanaphthalen-5-yl)amino)-8-azabicyclo[3.2.1]oct-8-yl)propionitrile], which IC50 [1] is on record?
**A.** Its IC50 is 4.57 nM.

**Q.** What about the IC50 [2] of the same compound?
**A.** The IC50 was 1.63 nM.

**Q.** How did the IC50 [1] turn out when `CC(C)(O)c1cnc(Nc2cc3ncccc3c(N[C@@H]3C[C@H]4CC[C@@H](C3)N4CCC#N)n2)s1` [Embodiment 31, 3-((3-exo)-3-((7-((5-(e2-hydroxypropan-2-yl)thiazol-2-yl)amino)-1,6-diazanaphthalen-5-yl)amino)-8-azabicyclo[3.2.1]oct-8-yl)propionitrile] was run?
**A.** Its IC50 is > 100 nM.

**Q.** And the IC50 [2]?
**A.** Its IC50 is 48.6 nM.

**Q.** What does the source list for `N#CCCN1[C@@H]2CC[C@H]1C[C@H](Nc1nc(Nc3ncc(C(N)=O)s3)cc3ncccc13)C2` [Embodiment 35, 2-((5-(((3-exo)-8-(2-cyanoethyl)-8-azabicyclo[3.2.1]oct-3-yl)amino)-1,6-diazanaphthalen-7-yl)amino)thiazol-5-formamide]?
**A.** IC50 [1]: 22.2 nM; IC50 [2]: 5.6 nM

**Q.** How did the IC50 [1] turn out when `Cc1cc(Nc2nc(N[C@@H]3C[C@H]4CC[C@@H](C3)N4CCC#N)c3cc[nH]c3n2)n[nH]1` [Embodiment 39, 3-((3-exo)-3-((2-((5-methyl-1H-pyrazol-3-yl)amino)-7H-pyrrolo[2,3-d]pyrimidin-4-yl)amino)-8-azabicyclo[3.2.1]oct-8-yl)propionitrile] was run?
**A.** Its IC50 is 9.49 nM.

**Q.** What about the IC50 [2] of the same compound?
**A.** Its IC50 is 2.94 nM.

**Q.** `Cc1cc(Nc2nc(N[C@@H]3C[C@H]4CC[C@@H](C3)N4CCC#N)nc3[nH]ncc23)n[nH]1` [Embodiment 51, 3-((3-exo)-3-((4-((5-methyl-1H-pyrazol-3-yl)amino)-1H-pyrazolo[3,4-d]pyrimidin-6-yl)amino)-8-azabicyclo[3.2.1]oct-8-yl)propionitrile] was tested. Which IC50 [1] did it give?
**A.** The IC50 was 0.24 nM.

**Q.** What about the IC50 [2] of the same compound?
**A.** The IC50 was 0.24 nM.

**Q.** `Cc1cc(Nc2cc3nccn3c(N[C@@H]3C[C@H]4CC[C@@H](C3)N4CCC#N)n2)n[nH]1` [Embodiment 79, 3-((3-exo)-3-((7-((5-methyl-1H-pyrazol-3-yl)amino)imidazo[1,2-c]pyrimidin-5-yl)amino)-8-azabicyclo[3.2.1]oct-8-yl)propionitrile] was tested. Which IC50 [1] did it give?
**A.** The IC50 was 5.77 nM.

**Q.** What about the IC50 [2] of the same compound?
**A.** The IC50 was 2.95 nM.

**Q.** How did the IC50 [1] turn out when `Cc1cc(Nc2nc(N[C@@H]3C[C@H]4CC[C@@H](C3)N4CCC#N)c3ccccc3n2)n[nH]1` [Embodiment 87, 3-((3-exo)-3-((2-((5-methyl-1H-pyrazol-3-yl)amino)quinazolin-4-yl)amino)-8-azabicyclo[3.2.1]oct-8-yl)propionitrile] was run?
**A.** Its IC50 is > 100 nM.

**Q.** And the IC50 [2]?
**A.** The IC50 was 35.1 nM.

**Q.** How did the IC50 [1] turn out when `Cc1cc(Nc2nc(N[C@@H]3C[C@H]4CC[C@@H](C3)N4CCC#N)nc3ncccc23)n[nH]1` [Embodiment 89, 3-((3-exo)-3-((4-((5-methyl-1H-pyrazol-3-yl)amino)pyrido[2,3-d]pyrimidin-2-yl)amino)-8-azabicyclo[3.2.1]oct-8-yl)propionitrile] was run?
**A.** Its IC50 is 0.15 nM.

**Q.** What about the IC50 [2] of the same compound?
**A.** Its IC50 is 0.65 nM.

**Q.** What does the source list for `Cc1cc(Nc2nc(N[C@@H]3C[C@H]4CC[C@@H](C3)N4CCC#N)c3cccnc3n2)n[nH]1` [Embodiment 90, 3-((3-exo)-3-((2-((5-methyl-1H-pyrazol-3-yl)amino)pyrido[2,3-d]pyrimidin-4-yl)amino)-8-azabicyclo[3.2.1]oct-8-yl)propionitrile]?
**A.** IC50 [1]: 21.6 nM; IC50 [2]: 7.23 nM

**Q.** What does the source list for `N#CCCN1[C@@H]2CC[C@H]1C[C@H](Nc1nc(Nc3ncc(C#N)s3)cc3ncccc13)C2` [Embodiment 160, 2-((5-(((3-exo)-8-(2-cyanoethyl)-8-azabicyclo[3.2.1]oct-3-yl)amino)-1,6-diazanaphthalen-7-yl)amino)thiazol-5-formonitrile]?
**A.** IC50 [1]: 6.15 nM; IC50 [2]: 11.7 nM

**Q.** Which results are given for `N#CCCN1[C@@H]2CC[C@H]1C[C@H](Nc1nc(Nc3ncc(CCO)s3)cc3ncccc13)C2` [Embodiment 161, 3-((3-exo)-3-((7-((5-(2-hydroxylethyl)thiazol-2-yl)amino)-1,6-diazanaphthalen-5-yl)amino)-8-azabicyclo[3.2.1]oct-8-yl)propionitrile]?
**A.** IC50 [1]: 35 nM; IC50 [2]: 20.8 nM

**Q.** How did the IC50 [1] turn out when `O=C(CN1CCCC1)N1[C@@H]2CCC[C@H]1C[C@H](Nc1nc(Nc3ncc(CO)s3)cc3ncccc13)C2` [Embodiment 164, 1-((3-exo)-3-((7-((5-(hydroxymethyl)thiazol-2-yl)amino)-1,6-diazanaphthalen-5-yl)amino)-9-azabicyclo[3.3.1]non-9-yl)-2-(pyrrolidin-1-yl)ethane-1-one] was run?
**A.** The IC50 was 16.6 nM.

**Q.** What about the IC50 [2] of the same compound?
**A.** The IC50 was 0.85 nM.

**Q.** With `O=C(CN1CCCCC1)N1[C@@H]2CC[C@H]1C[C@H](Nc1nc(Nc3ncc(CO)s3)cc3ncccc13)C2` [Embodiment 165, 1-((3-exo)-3-((7-((5-(hydroxymethyl)thiazol-2-yl)amino)-1,6-diazanaphthalen-5-yl)amino)-8-azabicyclo[3.2.1]oct-8-yl)-2-(piperidin-1-yl)ethane-1-one] as the compound, how does the IC50 [1] read?
**A.** Its IC50 is > 100 nM.

**Q.** What about the IC50 [2] of the same compound?
**A.** Its IC50 is 4.92 nM.

**Q.** What does the source list for `Cc1cc(Nc2nc(N[C@@H]3C[C@H]4CC[C@@H](C3)N4CCC#N)nc3cccc(Cl)c23)n[nH]1` [Embodiment 175, 3-((3-exo)-3-((5-chloro-4-((5-methyl-1H-pyrazol-3-yl)amino)quinazolin-2-yl)amino)-8-azabicyclo[3.2.1]oct-8-yl)propionitrile]?
**A.** IC50 [1]: 42.8 nM; IC50 [2]: > 100 nM

**Q.** How did the IC50 [1] turn out when `Cc1cc(Nc2nc(N[C@@H]3C[C@H]4CC[C@@H](C3)N4CCC#N)nc3c(C)cccc23)n[nH]1` [Embodiment 176, 3-((3-exo)-3-((8-methyl-4-((5-methyl-1H-pyrazol-3-yl)amino)quinazolin-2-yl)amino)-8-azabicyclo[3.2.1]oct-8-yl)propionitrile] was run?
**A.** The IC50 was 2.36 nM.

**Q.** And the IC50 [2]?
**A.** The IC50 was 4.18 nM.

**Q.** What does the source list for `Cc1cc(Nc2nc(N[C@@H]3C[C@H]4CC[C@@H](C3)N4CCC#N)nc3c(Cl)cccc23)n[nH]1` [Embodiment 177, 3-((3-exo)-3-((8-chloro-4-((5-methyl-1H-pyrazol-3-yl)amino)quinazolin-2-yl)amino)-8-azabicyclo[3.2.1]oct-8-yl)propionitrile]?
**A.** IC50 [1]: 1.58 nM; IC50 [2]: 3.36 nM

**Q.** Which results are given for `Cc1cc(Nc2nc(N[C@@H]3C[C@H]4CC[C@@H](C3)N4CCC#N)nc3ccc(Cl)cc23)n[nH]1` [Embodiment 178, 3-((3-exo)-3-((6-chloro-4-((5-methyl-1H-pyrazol-3-yl)amino)quinazolin-2-yl)amino)-8-azabicyclo[3.2.1]oct-8-yl)propionitrile]?
**A.** IC50 [1]: > 100 nM; IC50 [2]: 10.6 nM

**Q.** What does the source list for `Cc1cc(Nc2nc(N[C@@H]3C[C@H]4CC[C@@H](C3)N4CCC#N)nc3cc(-c4ccncc4)ccc23)n[nH]1` [Embodiment 180, 3-((3-exo)-3-((4-((5-methyl-1H-pyrazol-3-yl)amino)-7-(pyridin-4-yl)quinazolin-2-yl)amino)-8-azabicyclo[3.2.1]oct-8-yl)propionitrile]?
**A.** IC50 [1]: 0.56 nM; IC50 [2]: 0.35 nM

**Q.** For `COc1cncc(-c2ccc3c(Nc4cc(C)[nH]n4)nc(N[C@@H]4C[C@H]5CC[C@@H](C4)N5CCC#N)nc3c2)c1` [Embodiment 182], which IC50 [1] is on record?
**A.** Its IC50 is 0.25 nM.

**Q.** And the IC50 [2]?
**A.** The IC50 was 0.37 nM.

**Q.** `COc1ccc(-c2ccc3c(Nc4cc(C)[nH]n4)nc(N[C@@H]4C[C@H]5CC[C@@H](C4)N5CCC#N)nc3c2)cn1` [Embodiment 183, 3-((3-exo)-3-((7-(6-methoxylpyridin-3-yl)-4-((5-methyl-1H-pyrazol-3-yl)amino)quinazolin-2-yl)amino)-8-azabicyclo[3.2.1]oct-8-yl)propionitrile] was tested. Which IC50 [1] did it give?
**A.** The IC50 was 0.1 nM.

**Q.** What about the IC50 [2] of the same compound?
**A.** Its IC50 is 0.18 nM.
